The target of one test is Prothrombin (Homo sapiens, UniProt P00734). Briefly: Inhibition of thrombin.
Test [1] is described as follows: Inhibition of trypsin.
The target of a further test is Coagulation factor X (Homo sapiens, UniProt P00742). Briefly: Inhibition of factor 10a.
The nature of test [2]: Selectivity for trypsin over thrombin.
Test [3] is described as follows: Selectivity for factor 10a over thrombin.

The values below come from ChEMBL document CHEMBL1150268, “Novel potent and selective thrombin inhibitors based on a central 1,4-benzoxazin-3(4H)-one scaffold” (J Med Chem, 2008).

Molecules are shown by their SMILES.

Coagulation factor X, sequence (P00742 41-179 limits assumed): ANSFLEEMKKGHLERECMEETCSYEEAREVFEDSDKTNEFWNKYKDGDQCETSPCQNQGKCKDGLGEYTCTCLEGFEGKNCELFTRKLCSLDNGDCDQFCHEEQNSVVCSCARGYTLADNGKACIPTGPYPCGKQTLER
Coagulation factor X, sequence (P00742 235-488 limits assumed): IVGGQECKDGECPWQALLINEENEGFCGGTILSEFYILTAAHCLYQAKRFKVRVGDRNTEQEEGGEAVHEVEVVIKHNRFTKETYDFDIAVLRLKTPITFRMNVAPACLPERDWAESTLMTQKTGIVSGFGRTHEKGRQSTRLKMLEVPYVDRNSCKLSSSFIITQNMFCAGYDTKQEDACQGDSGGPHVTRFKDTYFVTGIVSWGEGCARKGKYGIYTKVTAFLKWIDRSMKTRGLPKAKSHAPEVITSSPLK

Consider `CN1C(=O)C(Cc2ccc(C(=N)N)cc2)Oc2cc(N(Cc3ccccc3)C(=O)CCC(=O)O)ccc21` (stereo not given), for which the Ki – broadly, the equilibrium dissociation constant of an inhibitor or competing ligand from its target – at Prothrombin was 0.0065 µM; in test [1], 7.41 µM; on Coagulation factor X it was 15.9 µM. In addition, the figures for the Ratio Ki in test [2] and in test [3] were 1130 and 2430, respectively.

As for `CCOC(=O)CCC(=O)N(Cc1ccccc1)c1ccc2c(c1)OC(Cc1ccc(C(=N)N)cc1)C(=O)N2C` (stereo not given), the inhibitory constant (Ki) at Prothrombin amounted to 0.0058 µM; in test [1] it was 3.1 µM; at Coagulation factor X it was 1.05 µM. Further, the Ratio Ki in test [2] is 535; in test [3], 181.

On to `CN1C(=O)C(Cc2ccc(C(=N)N)cc2)Oc2cc(NC(=O)C(Cc3ccccc3)C(=O)O)ccc21` (stereo not given), for which the results for the Ki (on Prothrombin; in test [1]; on Coagulation factor X) were 2.94 µM, 5.13 µM and 33.2 µM, respectively. Also, the Ratio Ki in test [2] stood at 1.7; in test [3] it was 11.

`CN1C(=O)C(Cc2ccc(C(=N)N)cc2)Oc2cc(N(Cc3ccccc3)C(=O)C(=O)O)ccc21` (stereo not given): the values for the inhibition constant Ki (on Prothrombin; in test [1]; at Coagulation factor X) were 0.011 µM, 10.1 µM and 9.27 µM, respectively. In addition, the Ratio Ki in test [2] was found to be 910; in test [3], 835.

Regarding `COC(=O)CC(=O)N(Cc1ccccc1)c1ccc2c(c1)OC(Cc1ccc(C(=N)N)cc1)C(=O)N2C` (stereo not given), the values for the Ki (at Prothrombin; in test [1]; on Coagulation factor X) were 0.0034 µM, 3.82 µM and 5.71 µM, respectively. Moreover, the Ratio Ki in test [2] was 1130; in test [3] it was 1690.

As for `CCOC(=O)C(=O)N(Cc1ccccc1)c1ccc2c(c1)OC(Cc1ccc(C(=N)N)cc1)C(=O)N2C` (stereo not given), the Ki at Prothrombin is 0.0036 µM; in test [1], 4.29 µM; at Coagulation factor X it was 1.94 µM. The Ratio Ki in test [2] worked out at 1190; in test [3], 537.

`COC(=O)C(Cc1ccccc1)C(=O)Nc1ccc2c(c1)OC(Cc1ccc(C(=N)N)cc1)C(=O)N2C` (stereo not given): the results for the inhibitory constant (Ki) (at Prothrombin; in test [1]; at Coagulation factor X) were 2.73 µM, 11.2 µM and 58.7 µM, respectively. Also, the Ratio Ki was 4.1 in test [2] and 22 in test [3].

As to `CN1C(=O)C(Cc2ccc(C(=N)N)cc2)Oc2cc(N(Cc3ccccc3)C(=O)CC(=O)O)ccc21` (stereo not given), the Ki at Prothrombin is 0.0026 µM; in test [1], 298 µM; on Coagulation factor X it was 139 µM. Further, the Ratio Ki in test [2] came out at 112000; in test [3] it was 52500.
